# Measured values reported in ChEMBL document CHEMBL3988181, “GlaxoSmithKline Published Kinase Inhibitor Set 2 Onchocerca lienalis Screening Data”.
# Assay: GSK PKIS2: Screen against O. lienalis microfilariae, single point, at 3.1uM to assess reduction in motility. Compounds were also tested for cytotoxicity against Rhesus Monkey LLCMK2 cells.
# Format: functional, Onchocerca lienalis, LLC-MK2
# Details: CELL_LINE LLCMK2; CELL_SUPPLIER ECACC; CONC 3.1 uM; ORGANISM_SUPPLIER Extracted from peri-umbilical skin obtained from naturally infected cattle in the UK; temperature 37 degree C
row,Structure (SMILES),MOTILITY REDUCTION/CYTOTOXICITY [%]
1,FC(F)(F)c1ccccc1-c1cc(-c2c[nH]nc2-c2ccccn2)ccn1,0
2,NS(=O)(=O)c1cccc(N/C=C2\C(=O)Nc3ccc(S(=O)(=O)Cc4c(Cl)cccc4Cl)cc32)c1,33.4
3,COc1ccccc1CNC(=O)c1cc(C(=O)c2ccccc2C)c[nH]1,86.7
4,CN(C)CCOc1ccc(-c2cc(-c3c[nH]nc3-c3ccccn3)ccn2)cc1,0
5,Nc1nccc2scc(-c3ccc4c(c3)CCN4C(=O)Cc3ccccc3)c12,0
6,Cc1nn2c(=O)cc(N3CCO[C@H](C)C3)nc2n1Cc1cccc(Cl)c1Cl,33.4
7,O=C(Nc1[nH]nc2cc(-c3ccccc3F)ccc12)C1CC1,0
8,Nc1nccc(-c2ccc3c(N)n[nH]c3c2)n1,0
9,COc1cccc(CNC(=O)NC2CCN(c3ccnc(Nc4ccc(F)cc4)n3)C2)c1 (configuration not stated),33.4
10,O=C1NC(=O)C(c2ccccc2)=C1Nc1ccc(Cl)c(C(=O)O)c1,0
11,COc1ccc(C2=C(Nc3cccc(O)c3)C(=O)NC2=O)cc1,13.4
12,CCN1CCN(CCCC(=O)Nc2n[nH]c3nc(-c4ccc(O)cc4)c(Br)cc23)CC1,20
13,Cn1cnc2c(N)ncnc21,0
14,COc1cc2ncnc(Nc3ccc4nc(-c5ccccc5)[nH]c4c3)c2cc1OC,73.4
15,Cn1cc(-c2ccc3c(c2)CCN3C(=O)Cc2cccc(Cl)c2)c2c(N)ncnc21,0
16,O=C(Nc1n[nH]c2cc(-c3ccoc3)ccc12)C1CC1,13.4
17,Cc1cn2c(=O)cc(N3CCOCC3)nc2n1Cc1cccc(Cl)c1Cl,0
18,Cc1ccc(NC(=O)c2ccnc(N3CCN(C)CC3)c2)cc1-c1ccc(C(=O)NCC2CC2)cc1,0
19,Cc1ccc(-n2nc(C(C)(C)C)cc2NC(=O)Nc2ccc(OCCN3CCOCC3)c3ccccc23)cc1 [DORAMAPIMOD],33.4
20,CC(C)(C)OC(=O)NC1CCCN(c2cc(-c3ccc4c(N)n[nH]c4c3)nc(N)n2)C1 (configuration not stated),0
21,CC(=O)c1cccc(NC(=O)NC2CCN(c3ccnc(Nc4ccc(F)cc4)n3)C2)c1 (configuration not stated),0
22,Clc1cc(Cl)cc(Nc2ccnc(Nc3cc(Cl)cc(Cl)c3)n2)c1,86.7
23,COc1ccc(Nc2nccc(NCCNC(=O)Nc3cc(C)ccc3C)n2)cc1,33.4

row,Structure (SMILES),MOTILITY REDUCTION/CYTOTOXICITY [%]
1,COc1ccc(CNC(=O)NC2CCN(c3ccnc(Nc4cc(OC)c(OC)c(OC)c4)n3)C2)cc1 (configuration not stated),0
2,O=C(Nc1ccc2c(c1)OCO2)NC1CCN(c2ccnc(NCc3ccc(F)cc3)n2)CC1,33.4
3,COc1ccc(Nc2nccc(N3CCC(NC(=O)c4cc5ccccc5s4)C3)n2)cc1 (configuration not stated),0
4,O=c1cc(N2CCOCC2)nc2n(Cc3ccccc3F)ccn12,0
5,Cc1cc(N2Cc3ccccc3C2)nc(Nc2ccc(S(=O)(=O)N3CCOCC3)cc2)n1,0
6,Nc1nccc2scc(-c3ccc4c(c3)CCN4C(=O)Cc3cc(F)ccc3F)c12,0
7,Fc1ccc(-c2nc[nH]c2-c2ccncc2)cc1,0
8,O=C1NC(=O)C(c2ccc(Cl)cc2)=C1Nc1cccc(C(=O)O)c1,0
9,COc1ccc(Nc2nccc(N3CCC(NC(=O)Nc4cccc(C(C)=O)c4)C3)n2)cc1 (configuration not stated),0
10,CCOc1nccc(-c2c(-c3ccc(F)cc3)ncn2C2CCNCC2)n1,0
11,Nc1nc(-c2cccnc2)c(-c2ccnc3ccccc23)s1,33.4
12,Clc1cccc(-c2nc(Nc3ccncc3)c3ccccc3n2)c1,0
13,Cc1cc(C)cc(Oc2nccc(-c3c(-c4ccc(F)cc4)ncn3C3CCNCC3)n2)c1,20
14,CNc1nc(-c2ccc3c(N)n[nH]c3c2)cc(N2C[C@@H](C(=O)Nc3ccccc3)CC[C@H]2C)n1,0
15,O=C1NC(=O)C(c2ccccc2Cl)=C1Nc1cccc(Cl)c1,0
16,Fc1cc(Cl)ccc1Nc1ccnc2cc(-c3ccc(CN4CCSCC4)o3)ccc12,33.4
17,O=C(Nc1n[nH]c2nc(-c3ccccc3)c(Cl)cc12)C1CC1,0
18,NCC(C(=O)Nc1cc(Br)c(-c2ccnc3[nH]ccc23)s1)c1ccccc1 (configuration not stated),0
19,c1ccc(Cn2ncc3cc(Nc4ncnc5ccccc45)ccc32)cc1,0
20,O=C(NCCNc1ccnc(NCc2ccc(F)cc2)n1)c1cc2ccccc2s1,0
21,Nc1nc(Nc2ccccc2)cc(-c2ccc3c(N)n[nH]c3c2)n1,0
22,Nc1nc(-c2ccc3c(N)n[nH]c3c2)cc(N2CCC[C@@H](C(=O)Nc3ccccc3)C2)n1,0
23,CNC(=O)c1ccccc1Nc1nc(Nc2ccc(N3CCOCC3)cc2)ncc1Cl,80

row,Structure (SMILES),MOTILITY REDUCTION/CYTOTOXICITY [%]
1,C[C@@H](Oc1cc(-n2cnc3ccc(-c4ccncc4)cc32)sc1C(N)=O)c1ccccc1Cl,0
2,COc1ccc(Nc2nccc(N3CCC(NC(=O)Nc4cccc(OC)c4)C3)n2)cc1 (configuration not stated),0
3,COc1cccc(C2=C(N(C)c3ccccc3)C(=O)NC2=O)c1,0
4,C[C@@H](Oc1cc(-n2cnc3cc(-c4ccncc4)ccc32)sc1C(N)=O)c1ccccc1Cl,0
5,COC(=O)Nc1nc2ccc(Oc3ccc(NC(=O)Nc4cc(C(F)(F)F)ccc4F)cn3)cc2[nH]1,0
6,FC(F)(F)c1cc(Nc2nccc(-c3c(-c4ccc(Cl)cc4)nn4ncccc34)n2)ccc1Cl,20
7,c1ccc(-c2n[nH]cc2-c2ccnc3ccccc23)nc1,0
8,Nc1nccc(-c2c(-c3ccc(F)cc3)ncn2C2CCN(CC(F)(F)F)CC2)n1,0
9,Fc1ccc(-c2nn3cccc(F)c3c2-c2ccncc2)cc1,0
10,Cc1ccn2nc(-c3ccc(F)cc3)c(-c3ccncc3)c2c1,0
11,Cc1c(Cn2ccn3c(=O)nc(N4CCOCC4)cc23)cccc1C(F)(F)F,0
12,COC(=O)Nc1nc2ccc(Oc3ccc(NC(=O)Nc4cc(C(F)(F)F)ccc4Cl)cc3)cc2[nH]1,0
13,CCc1nc(-c2cccc(N(C)S(=O)(=O)c3ccccc3)c2)c(-c2ccnc(Nc3ccc(N4CCN(C(C)=O)CC4)nc3)n2)s1,0
14,O=C(Nc1n[nH]c2nc(-c3cccc(O)c3)ccc12)C1CC1,0
15,Cc1cccc2c(-c3ccncn3)c(-c3ccc(F)cc3)nn12,13.4
16,COc1cc(Nc2nccc(-c3c(-c4cccc(NC(=O)c5c(F)cccc5F)c4)nn4ncccc34)n2)cc(OC)c1OC,16.7
17,O=C(Nc1c(F)cccc1F)c1cc(C(=O)c2ccccc2F)c[nH]1,0
18,Nc1n[nH]c2ncc(-c3ccccc3)cc12,0
19,Cn1cc(-c2ccc3c(c2)CCN3C(=O)Cc2cccc(F)c2)c2c(N)ncnc21,33.4
20,Oc1cccc(Nc2ccnc3cc(-c4ccncc4)ccc23)c1,0
21,c1ccc(-c2cc(-c3c[nH]nc3-c3ccccn3)ccn2)cc1,0
22,CN(c1ccc2c(c1)nc(NCc1ccc(F)cc1)n2C)c1ccnc(Nc2ccc(CS(C)(=O)=O)cc2)n1,0
23,COc1cc(Nc2ccnc3ccc(C(F)(F)F)cc23)cc(OC)c1OC,0

row,Structure (SMILES),MOTILITY REDUCTION/CYTOTOXICITY [%]
1,COc1cc(Nc2nccc(N3CCC(NC(=O)c4cccc(C#N)c4)C3)n2)cc(OC)c1OC (configuration not stated),0
2,O=C(Nc1[nH]nc2cc(-c3cccc(F)c3F)ccc12)C1CC1,0
3,CCCC(=O)Nc1n[nH]c2ncc(-c3cccc4ccccc34)cc12,0
4,Fc1cc(Cl)ccc1Nc1ccnc2cc(-c3ccc(CN4CCCCC4)o3)ccc12,16.7
5,C=CC(=O)Nc1cc2c(Nc3ccc(F)c(Cl)c3)ncnc2cc1OCCCN1CCOCC1 [CANERTINIB],0
6,O=C(Nc1n[nH]c2cc(-c3ccco3)ccc12)C1CC1,0
7,Cc1csc(-c2nc(Nc3ccncc3)c3ccccc3n2)n1,33.4
8,Cc1ccccc1COc1cc(-n2cnc3cc(Cl)ccc32)sc1C(N)=O,0
9,CCCC(=O)Nc1n[nH]c2ncccc12,20
10,NCC(NC(=O)c1cc(-c2cccnc2)c(-c2ccnc3[nH]ccc23)s1)c1ccccc1 (configuration not stated),0
11,O=C(Nc1n[nH]c2nc(-c3ccccc3O)ccc12)C1CC1,0
12,COc1cccc(NC(=O)NCCNc2ccnc(Nc3ccc(F)cc3)n2)c1,33.4
13,O=C1NC(=O)C(c2ccccc2)=C1Nc1cccc(O)c1,0
14,Cc1cc(-c2c(-c3ccc(F)cc3)ncn2CCCN2CCOCC2)nc(N)n1,0
15,c1ccc(Cn2cnc3cc(Nc4ncnc5ccccc45)ccc32)cc1,16.7
16,O=c1cc(N2CCOCC2)nc2n(Cc3cccc(Cl)c3Cl)ccn12,80
17,NS(=O)(=O)c1cccc(-c2ccc3ncc(N4CCOCC4)nc3c2)c1,0
18,O=c1[nH]cc(-c2ccc(O)cc2)c2sc(-c3ccncc3)cc12,0
19,CCN(CC)CCOc1ccc(Nc2ncc3cc(-c4c(Cl)cccc4Cl)c(=O)n(C)c3n2)cc1 [PD-0166285],33.4
20,O=C(NCCNc1ccnc(Nc2ccc(F)cc2)n1)Nc1ccccc1F,0
21,Cc1cccc(Nc2nc(NCCN)ncc2C(N)=O)c1,0
22,Fc1ccc(-c2nn3c(OCC(F)(F)F)cccc3c2-c2ccncc2)cc1,13.4
23,COC(=O)C(NC(=O)NC1CCN(c2ccnc(Nc3ccc(F)cc3)n2)C1)c1ccccc1 (configuration not stated),0
